According to PMC6020091 (Chemistry Central Journal, 2018):

Columns and labels:
[1] = biological target: T1, AChE (acetylcholinesterase) (Electrophorus electricus, UniProt O42275); test: colorimetric hydroxamic acid/FeCl3 assay of remaining ACh (Bonting and Featherstone), non-linear regression; type: biochemical
[2] = biological target: T1, AChE (acetylcholinesterase); test: colorimetric hydroxamic acid/FeCl3 assay of remaining ACh (Bonting and Featherstone), enzyme kinetics with Lineweaver-Burk plot; type: biochemical

T1 sequence (O42275 24-633 limits assumed): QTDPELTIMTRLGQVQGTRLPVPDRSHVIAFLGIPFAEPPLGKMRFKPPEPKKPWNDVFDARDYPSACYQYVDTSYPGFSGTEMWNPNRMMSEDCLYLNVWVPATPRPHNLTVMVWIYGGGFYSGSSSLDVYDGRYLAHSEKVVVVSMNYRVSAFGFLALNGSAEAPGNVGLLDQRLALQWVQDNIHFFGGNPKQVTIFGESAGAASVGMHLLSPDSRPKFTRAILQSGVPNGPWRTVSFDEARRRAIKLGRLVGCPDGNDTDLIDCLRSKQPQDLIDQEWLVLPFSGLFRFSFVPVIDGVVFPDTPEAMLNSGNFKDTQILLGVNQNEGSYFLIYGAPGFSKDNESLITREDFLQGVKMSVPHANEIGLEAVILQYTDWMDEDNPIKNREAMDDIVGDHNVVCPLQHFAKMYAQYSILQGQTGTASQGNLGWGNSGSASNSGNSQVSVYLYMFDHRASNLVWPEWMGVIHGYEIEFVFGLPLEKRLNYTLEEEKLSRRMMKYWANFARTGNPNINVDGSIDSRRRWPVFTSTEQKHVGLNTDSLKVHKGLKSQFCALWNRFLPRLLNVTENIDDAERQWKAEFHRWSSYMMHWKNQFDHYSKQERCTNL

Structure (SMILES) | Ki [1] [µM] | Ki [2] [µM]
CN(C)C(=O)Oc1cccc([N+](C)(C)C)c1 [neostigmine] | 93 to 157 | –
COc1ccc(CCN2C(=O)c3ccccc3C2=O)cc1OC [compound 1] | – | 330 to 930
